From patent US20020034545A1, “Particulate composition of eletriptan” (priority 2000, published 2002)
Values after ≈ are worked out from the molar mass of the structure shown. Counter-ions that a name gives are not always drawn.

Test: physchem
Assay type: physicochemical
Source text: Several salts of eletriptan have been identified that have properties which make them particularly suitable for development as drug substances. […] It is therefore desirable to provide a controlled release formulation capable of achieving a sigmoidal pattern of drug release and suitable for oral administration that is equally useful for the delivery of any form of eletriptan, regardless of its solubility.

| Molecule | aqueous solubility | solubility (20 °C, water, aqueous solubility) |
| --- | --- | --- |
| CN1CCC[C@@H]1Cc1c[nH]c2ccc(CCS(=O)(=O)c3ccccc3)cc12 [eletriptan free base, 3-{[1-methylpyrrolidin-2(R)-yl]methyl}-5-(2-phenylsulfonylethyl)-1H-indole] | 2.5 mg/mL (≈ 6.54 mM) |  |
| CN1CCC[C@@H]1Cc1c[nH]c2ccc(CCS(=O)(=O)c3ccccc3)cc12 [hydrobromide salt, eletriptan hydrobromide] |  | 4000 µg/mL |
| eletriptan hemisulphate [hemisulphate salt] | > 200 mg/mL |  |
